Assay results taken from patent US10342777B2, “Caffeoylquinic acid-rich extract and preparation as well as use thereof” (Macau University of Science and Technology, priority 2015, dated 2019).

Assays:
[1] = tested on: TNF-α; experiment: Cardiac tissue TNF-α level by ELISA 24 h after I/R; type: in vivo, rat; settings: 5 mg/kg
Protocol: (§1) An ischemia reperfusion injury was produced in rat heart based on Buerke's description with our modifications (Buerke et al., Proc Natl Acad Sci USA, 1995, 92:8031-8035). Sixty rats were randomly divided into six groups (n=10 per group): (I) Sham group (given saline vehicle without I/R); (II) I/R group with saline alone; (Ill) I/R group with 10 mg/kg of the caffeoylquinic acid-rich extract of example 1; (IV) I/R group with 20 mg/kg of the caffeoylquinic acid-rich extract of example 1; (V) I/R group with 40 mg/kg of the caffeoylquinic acid-rich extract of example 1; […] The vehicle or drugs were administered 1 min before reperfusion via single bolus tail vein injection. […] Using a PowerLab (ADInstruments Pty Ltd., Castle Hill, Australia), mean aortic pressure (MAP) was recorded from the Millar catheter. Electrocardiogram (ECG) in lead II was also recorded through the needle electrodes attached to the limbs. The heart rate and ST-segment elevation were calculated off-line. […] Levels of TNF-α and IL-6 were measured using ELISA kits for TNF-α (RayBiotech, Inc., Norcross Ga.) and IL-6 (R & D System). […] The contents of total protein in the supernatants were determined by using a Bio-Rad kit (Bio-Rad Laboratories, Hercules, Calif., USA). […] To determine the effect of a caffeoylquinic acid-rich extract on pro-inflammatory cytokines, cardiac tissue levels of TNF-α and IL-6 after I/R were evaluated.

[2] = tested on: JNK; experiment: Western blot of phospho-JNK in left ventricular tissue after I/R; type: in vivo, rat; settings: 5 mg/kg before reperfusion
[3] = tested on: Lactate dehydrogenase (LDH); experiment: Serum LDH activity 24 h after I/R (commercial kit); type: in vivo, rat; settings: 5 mg/kg, P<0.01
Protocol: (§2) An ischemia reperfusion injury was produced in rat heart based on Buerke's description with our modifications (Buerke et al., Proc Natl Acad Sci USA, 1995, 92:8031-8035). Sixty rats were randomly divided into six groups (n=10 per group): (I) Sham group (given saline vehicle without I/R); (II) I/R group with saline alone; (Ill) I/R group with 10 mg/kg of the caffeoylquinic acid-rich extract of example 1; (IV) I/R group with 20 mg/kg of the caffeoylquinic acid-rich extract of example 1; (V) I/R group with 40 mg/kg of the caffeoylquinic acid-rich extract of example 1; […] The vehicle or drugs were administered 1 min before reperfusion via single bolus tail vein injection. Rats were anesthetized with pentobarbital sodium (70 mg/kg body weight) by an i.p. injection of a mixture of 20% Dorminal (1 ml contains 200 mg pentobarbital sodium, Alfasan) and sterile saline at a ratio of 1:3 (VN). Using a PowerLab (ADInstruments Pty Ltd., Castle Hill, Australia), mean aortic pressure (MAP) was recorded from the Millar catheter. Electrocardiogram (ECG) in lead II was also recorded through the needle electrodes attached to the limbs. The heart rate and ST-segment elevation were calculated off-line. The chest was opened at the left fourth intercostal space. […] Activities of LDH and CK-MB were determined by using commercial assay kits according to manufacturer's instructions. […]

[4] = tested on: IL-6; experiment: Cardiac tissue IL-6 level by ELISA 24 h after I/R; type: in vivo, rat; settings: 5 mg/kg
Protocol: as §1

[5] = tested on: myocardial I/R injury in rat heart; experiment: ECG (lead II) ST-segment depression and heart rate 24 h after I/R; type: in vivo; settings: 5 mg/kg; 24 h reperfusion
Protocol: An ischemia reperfusion injury was produced in rat heart based on Buerke's description with our modifications (Buerke et al., Proc Natl Acad Sci USA, 1995, 92:8031-8035). Sixty rats were randomly divided into six groups (n=10 per group): (I) Sham group (given saline vehicle without I/R); (II) I/R group with saline alone; (Ill) I/R group with 10 mg/kg of the caffeoylquinic acid-rich extract of example 1; (IV) I/R group with 20 mg/kg of the caffeoylquinic acid-rich extract of example 1; (V) I/R group with 40 mg/kg of the caffeoylquinic acid-rich extract of example 1; […] The vehicle or drugs were administered 1 min before reperfusion via single bolus tail vein injection. […] Using a PowerLab (ADInstruments Pty Ltd., Castle Hill, Australia), mean aortic pressure (MAP) was recorded from the Millar catheter. Electrocardiogram (ECG) in lead II was also recorded through the needle electrodes attached to the limbs. The heart rate and ST-segment elevation were calculated off-line. […] Electrocardiogram (ECG) in lead II was recorded through the needle electrodes attached to the limbs continuously for 15 min with an electrocardiograph (ASB240U, […], China). The heart rate and ST-segment depression were calculated off-line. […] The amplitude of ST-segment and heart rate were recorded and used as the index of ischemic electrocardiograph changes. […]

[6] = tested on: myocardial I/R injury in rat heart; experiment: Myocardial infarct size by TTC staining after ischemia/reperfusion; type: in vivo; settings: 5 mg/kg i.v. tail vein 1 min before reperfusion; positive control; vehicle 15.2±1.4%
Protocol: An ischemia reperfusion injury was produced in rat heart based on Buerke's description with our modifications (Buerke et al., Proc Natl Acad Sci USA, 1995, 92:8031-8035). Sixty rats were randomly divided into six groups (n=10 per group): (I) Sham group (given saline vehicle without I/R); (II) I/R group with saline alone; (Ill) I/R group with 10 mg/kg of the caffeoylquinic acid-rich extract of example 1; (IV) I/R group with 20 mg/kg of the caffeoylquinic acid-rich extract of example 1; (V) I/R group with 40 mg/kg of the caffeoylquinic acid-rich extract of example 1; […] The vehicle or drugs were administered 1 min before reperfusion via single bolus tail vein injection. […] Using a PowerLab (ADInstruments Pty Ltd., Castle Hill, Australia), mean aortic pressure (MAP) was recorded from the Millar catheter. Electrocardiogram (ECG) in lead II was also recorded through the needle electrodes attached to the limbs. The heart rate and ST-segment elevation were calculated off-line. […] The images of the slice were captured by a LEICA digital camera 480 and infarct area in each slice was measured by computed planimetry with an image analyzing program Image J1.26 (Wayne Rasband, National Institutes of Health, USA). Then the infarct area of each slice was determined by manual delineation of TTC-negative pale area of the image. […]

[7] = tested on: Creatine kinase-MB (CK-MB); experiment: Serum CK-MB activity 24 h after I/R (commercial kit); type: in vivo, rat; settings: 5 mg/kg, P<0.01
Protocol: as §2

O=C(/C=C/c1ccc(O)c(O)c1)OCCc1ccccc1 [CAPE, 2-phenylethyl (2E)-3-(3,4-dihydroxyphenyl)acrylate]
cardiac tissue level of TNF-α [1]: markedly decreased
JNK phosphorylation [2]: markedly reduced
serum LDH [3]: 287±18.8 U/L
cardiac tissue level of IL-6 [4]: markedly decreased
I/R-induced ST-segment depression [5]: significant protective effects
heart rate decrease after I/R [5]: slight effect without significant difference
myocardial infarct size [6]: 7.9±0.9%
serum CK-MB [7]: 913±40.2 U/L
